Data on 31 compounds can be found in US10202360B2 (CELGENE QUANTICEL RESEARCH, INC., priority 2016, dated 2019).

The experiment concerns the target CREBBP (Homo sapiens (Human), UniProt Q92793). Briefly: In vitro enzyme inhibition assay - CREBBP inhibition (AlphaScreen, biotinylated H4-tetraacetyl peptide). It is filed as binding. The following applies: Table 28; AlphaScreen, H4-tetraacetyl peptide. The gist of the method: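 Displacement of 20 nM biotinylated tetraacetyl-H4 peptide from 50 nM E. coli-expressed His-CREBBP, measured by AlphaScreen after bead equilibration for 2 h.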

Some results are limits rather than exact numbers.

CREBBP, sequence (Q92793 1081-1197): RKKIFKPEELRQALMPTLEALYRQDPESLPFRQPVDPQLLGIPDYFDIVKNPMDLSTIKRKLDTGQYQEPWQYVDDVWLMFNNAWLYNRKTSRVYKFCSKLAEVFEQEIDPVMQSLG

In turn, `CCCCS(=O)(=O)Nc1cc(-c2cc(C)c(=O)n(C)c2)nc(Oc2c(C)nn(CC)c2C)n1` [Example 128, Butane-1-sulfonic acid [6-(1,5-dimethyl-6-oxo-1,6-dihydro-pyridin-3-yl)-2-(1-ethyl-3,5-dimethyl-1H-pyrazol-4-yloxy)-pyrimidin-4-yl]-amide] came in with an IC50 of less than 500 nM.
`CCCS(=O)(=O)Nc1cc(Oc2c(C)cccc2C#N)nc(-c2cc(C)c(=O)n(C)c2)n1` [Example 129, Propane-1-sulfonic acid [6-(2-cyano-6-methyl-phenoxy)-2-(1,5-dimethyl-6-oxo-1,6-dihydro-pyridin-3-yl)-pyrimidin-4-yl]-amide] showed an IC50 of less than 500 nM.
The figure for `CCCS(=O)(=O)Nc1cc(Oc2c(C#N)cccc2OC)nc(-c2cc(C)c(=O)n(C)c2)n1` [Example 130, Propane-1-sulfonic acid [6-(2-cyano-6-methoxy-phenoxy)-2-(1,5-dimethyl-6-oxo-1,6-dihydro-pyridin-3-yl)-pyrimidin-4-yl]-amide] is less than 500 nM; for `CCS(=O)(=O)Nc1cc(-c2cc(C)c(=O)n(C)c2)nc(OC2CCCC2)n1` [Example 131, Ethanesulfonic acid [2-cyclopentyloxy-6-(1,5-dimethyl-6-oxo-1,6-dihydro-pyridin-3-yl)-pyrimidin-4-yl]-amide] it is less than 500 nM; for `Cc1cc(-c2cc(S(C)(=O)=O)nc(Oc3ccc(F)cc3F)n2)cn(C)c1=O` [Example 132, 5-[2-(2,4-Difluoro-phenoxy)-6-methanesulfonyl-pyrimidin-4-yl]-1,3-dimethyl-1H-pyridin-2-one] it is less than 500 nM.
For the compound `Cc1cccc(Cl)c1Oc1nc(-c2cc(C)c(=O)n(C)c2)cc(S(C)(=O)=O)n1` [Example 133, 5-[2-(2-Chloro-6-methyl-phenoxy)-6-methanesulfonyl-pyrimidin-4-yl]-1,3-dimethyl-1H-pyridin-2-one], the IC50 is less than 500 nM.
To `Cc1cc(-c2cc(S(=O)(=O)C(C)C)nc(Oc3ccc(F)cc3F)n2)cn(C)c1=O` [Example 134, 5-[2-(2,4-Difluoro-phenoxy)-6-(propane-2-sulfonyl)-pyrimidin-4-yl]-1,3-dimethyl-1H-pyridin-2-one] belongs less than 500 nM.
The figure for `Cc1cccc(Cl)c1Oc1nc(-c2cc(C)c(=O)n(C)c2)cc(S(=O)(=O)C(C)C)n1` [Example 135, 5-[2-(2-Chloro-6-methyl-phenoxy)-6-(propane-2-sulfonyl)-pyrimidin-4-yl]-1,3-dimethyl-1H-pyridin-2-one] is less than 500 nM; for `Cc1cccc(F)c1Oc1nc(NS(=O)(=O)CCCF)cc(-c2ccc(=O)n(C)c2)n1` [Example 136, 3-Fluoro-propane-1-sulfonic acid [2-(2-fluoro-6-methyl-phenoxy)-6-(1-methyl-6-oxo-1,6-dihydro-pyridin-3-yl)-pyrimidin-4-yl]-amide] it is less than 500 nM; for `CCC(C)S(=O)(=O)Nc1cc(-c2ccc(=O)n(C)c2)nc(Oc2c(C)cccc2F)n1` (stereo not shown) [Example 137, Butane-2-sulfonic acid [2-(2-fluoro-6-methyl-phenoxy)-6-(1-methyl-6-oxo-1,6-dihydro-pyridin-3-yl)-pyrimidin-4-yl]-amide] it is less than 500 nM.
The figure for `CCCCS(=O)(=O)Nc1cc(-c2cc(C)c(=O)n(C)c2)nc(Oc2c(F)cccc2Cl)n1` [Example 138, Butane-1-sulfonic acid [2-(2-chloro-6-fluoro-phenoxy)-6-(1,5-dimethyl-6-oxo-1,6-dihydro-pyridin-3-yl)-pyrimidin-4-yl]-amide] is less than 500 nM; for `CCCCS(=O)(=O)Nc1cc(-c2ccc(=O)n(C)c2)nc(Oc2c(F)cccc2Cl)n1` [Example 139, Butane-1-sulfonic acid [2-(2-chloro-6-fluoro-phenoxy)-6-(1-methyl-6-oxo-1,6-dihydro-pyridin-3-yl)-pyrimidin-4-yl]-amide] it is less than 500 nM; for `CCS(=O)(=O)Nc1cc(-c2cc(C)c(=O)n(C)c2)nc(OC(C)C)n1` [Example 140, Ethanesulfonic acid [6-(1,5-dimethyl-6-oxo-1,6-dihydro-pyridin-3-yl)-2-isopropoxy-pyrimidin-4-yl]-amide] it is less than 500 nM.
`CCCS(=O)(=O)Nc1cc(-c2cc(C)c(=O)n(C)c2)nc(Oc2c(F)cccc2Cl)n1` [Example 141, Propane-1-sulfonic acid [2-(2-chloro-6-fluoro-phenoxy)-6-(1,5-dimethyl-6-oxo-1,6-dihydro-pyridin-3-yl)-pyrimidin-4-yl]-amide] gave an IC50 of less than 500 nM.
For `Cc1cc(-c2cc(NS(=O)(=O)C(C)C)nc(Oc3c(F)cccc3Cl)n2)cn(C)c1=O` [Example 142, Propane-2-sulfonic acid [2-(2-chloro-6-fluoro-phenoxy)-6-(1,5-dimethyl-6-oxo-1,6-dihydro-pyridin-3-yl)-pyrimidin-4-yl]-amide], the IC50 was less than 500 nM.
To `CCCS(=O)(=O)Nc1cc(-c2ccc(=O)n(C)c2)nc(Oc2c(F)cccc2Cl)n1` [Example 143, Propane-1-sulfonic acid [2-(2-chloro-6-fluoro-phenoxy)-6-(1-methyl-6-oxo-1,6-dihydro-pyridin-3-yl)-pyrimidin-4-yl]-amdie] belongs less than 500 nM; to `CC(C)S(=O)(=O)Nc1cc(-c2ccc(=O)n(C)c2)nc(Oc2c(F)cccc2Cl)n1` [Example 144, Propane-2-sulfonic acid [2-(2-chloro-6-fluoro-phenoxy)-6-(1-methyl-6-oxo-1,6-dihydro-pyridin-3-yl)-pyrimidin-4-yl]-amide], less than 500 nM.
To `Cc1cccc(F)c1Oc1nc(NS(=O)(=O)CCCC(F)(F)F)cc(-c2ccc(=O)n(C)c2)n1` [Example 146, 4,4,4-Trifluoro-butane-1-sulfonic acid [2-(2-fluoro-6-methyl-phenoxy)-6-(1-methyl-6-oxo-1,6-dihydro-pyridin-3-yl)-pyrimidin-4-yl]-amide] belongs less than 500 nM; to `CCS(=O)(=O)Nc1cc(-c2cc(C)c(=O)n(C)c2)nc(OC(C)c2ccccc2)n1` (stereo not shown) [Example 147, Ethanesulfonic acid [6-(1,5-dimethyl-6-oxo-1,6-dihydro-pyridin-3-yl)-2-(1-phenyl-ethoxy)-pyrimidin-4-yl]-amide], less than 500 nM.
On to `Cn1cc(-c2cc(NS(=O)(=O)CCCF)nc(Oc3c(F)cccc3Cl)n2)ccc1=O` [Example 148, N-(2-(2-chloro-6-fluorophenoxy)-6-(1-methyl-6-oxo-1,6-dihydropyridin-3 yl)pyrimidin-4-yl)-3-fluoropropane-1-sulfonamide], for which the IC50 is less than 500 nM.
The figure for `Cc1cccc(C#N)c1Oc1nc(NS(=O)(=O)CCC(F)(F)F)cc(-c2ccc(=O)n(C)c2)n1` [Example 149, N-(2-(2-cyano-6-methylphenoxy)-6-(1-methyl-6-oxo-1,6-dihydropyridin-3-yl)pyrimidin-4-yl)-3,3,3-trifluoropropane-1-sulfonamide] is less than 500 nM; for `Cc1cccc(C#N)c1Oc1nc(NS(=O)(=O)CCCC(F)(F)F)cc(-c2ccc(=O)n(C)c2)n1` [Example 150, N-(2-(2-cyano-6-methylphenoxy)-6-(1-methyl-6-oxo-1,6-dihdyropyridin-3-yl)pyrimidin-4-yl)-4,4,4-trifluorobutane-1-sulfonamide] it is less than 500 nM; for `CCS(=O)(=O)Nc1cc(-c2cc(C)c(=O)n(C)c2)nc(OCC(F)(F)F)n1` [Example 151, N-(6-(1,5-dimehtyl-6-oxo-1,6-dihydropyridin-3-yl)-2-(2,2,2-trifluoroethoxy)pyrimidin-4-yl)ethanesulfonamide] it is less than 500 nM.
To `Cc1cc(-c2cc(NS(=O)(=O)C(C)C)nc(OCC(C)C)n2)cn(C)c1=O` [Example 152, N-(6-(1,5-dimethyl-6-oxo-1,6-dihydropyridin-3-yl)-2-isobutoxypyrimidin-4-yl)propane-2-sulfonamide] belongs less than 500 nM.
The figure for `CCS(=O)(=O)Nc1nc(Oc2c(C)cccc2C)nc(-c2cc(C)c(=O)n(C)c2)n1` [Example 153, Ethanesulfonic acid [4-(1,5-dimethyl-6-oxo-1,6-dihydro-pyridin-3-yl)-6-(2,6-dimethyl-phenoxy)-[1,3,5]triazin-2-yl]-amide] is less than 500 nM; for `CCCS(=O)(=O)Nc1nc(Oc2c(C)cccc2C)nc(-c2cc(C)c(=O)n(C)c2)n1` [Example 154, Propane-1-sulfonic acid [4-(1,5-dimethyl-6-oxo-1,6-dihydro-pyridin-3-yl)-6-(2,6-dimethyl-phenoxy)-[1,3,5]triazin-2-yl]-amide] it is less than 500 nM; for `Cc1cccc(C)c1Oc1nc(NS(=O)(=O)C(C)C)nc(-c2cc(C)c(=O)n(C)c2)n1` [Example 155, Propane-2-sulfonic acid [4-(1,5-dimethyl-6-oxo-1,6-dihydro-pyridin-3-yl)-6-(2,6-dimethyl-phenoxy)-[1,3,5]triazin-2-yl]-amide] it is less than 500 nM.
As to `CCCS(=O)(=O)Nc1cc(-c2cc(C)c(=O)n(C)c2)nc(-c2ccccc2)n1` [Example 156, N-(6-(1,5-dimethyl-6-oxo-1,6-dihydropyridin-3-yl)-2-phenylpyrimidin-4-yl)propane-1-sulfonamide], the IC50 is 500 to 5000 nM.
To `CCCCS(=O)(=O)Nc1cc(-c2c[nH]c(=O)c(C)c2)nc(Oc2c(C)cccc2Cl)n1` [Example 157, Butane-1-sulfonic acid [2-(2-chloro-6-methyl-phenoxy)-6-(5-methyl-6-oxo-1,6-dihydro-pyridin-3-yl)-pyrimidin-4-yl]-amide] belongs less than 500 nM; to `Cc1cccc(Cl)c1Oc1nc(NS(=O)(=O)C(C)C)cc(-c2c[nH]c(=O)c(C)c2)n1` [Example 158, Propane-2-sulfonic acid [2-(2-chloro-6-methyl-phenoxy)-6-(5-methyl-6-oxo-1,6-dihydro-pyridin-3-yl)-pyrimidin-4-yl]-amide], less than 500 nM; to `CCS(=O)(=O)Nc1nc(Oc2c(C)cccc2F)nc(-c2cc(C)c(=O)n(C)c2)c1C` [Example 159, Ethane-2-sulfonic acid [6-(1,5-dimethyl-6-oxo-1,6-dihydro-pyridin-3-yl)-2-(2-fluoro-6-methyl-phenoxy)-5-methyl-pyrimidin-4-yl]-amide], less than 500 nM.
